Structures are written as SMILES.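 The compound was tested at five concentrations on cells cultured in 96-well plates, with a 48-hour exposure period. The concentration for full growth arrest is given as TGI.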 Where only a bound is given, the exact number is not on record here.

Here are results for six molecules from PubChem BioAssay (NCI).

Some test systems named below: A549 NSCLC; UACC-257 melanoma; CCRF-CEM leukemia; CAKI-1 renal; EKVX NSCLC; SF-268 CNS; SN12C renal; HOP-92 NSCLC; IGROV1 ovarian; SK-MEL-5 melanoma; NCI/ADR-RES ovarian; PC-3 prostate; MOLT-4 leukemia; HCT-15 colon; UACC-62 melanoma; MDA-MB-231 breast; HCC-2998 colon; U251 CNS; HL-60(TB) leukemia.
What all share (test): inhibition of tumour cell growth, NCI panel, 48 h

As to `O=C1c2ccccc2C(=O)c2c1ccc1nc3c(nc21)-c1c2ccccc2cc2cccc-3c12`, the TGI in the test on A549 NSCLC, with UACC-257 melanoma, in the test with CCRF-CEM leukemia, in the test on CAKI-1 renal, in the test on EKVX NSCLC and with SF-268 CNS was more than 100 µM in each case. Moreover, the TGI in the test on SN12C renal is more than 100 µM; with HOP-92 NSCLC it was more than 100 µM; in the test on IGROV1 ovarian it was more than 57.4 µM; in the test on SK-MEL-5 melanoma it was more than 100 µM; with NCI/ADR-RES ovarian, more than 100 µM; in the test with PC-3 prostate, more than 100 µM. The TGI in the test on MOLT-4 leukemia is more than 100 µM; in the test on HCT-15 colon, more than 100 µM; in the test on UACC-62 melanoma, more than 86.2 µM; with MDA-MB-231 breast, more than 100 µM; in the test on HCC-2998 colon it was more than 100 µM; in the test on U251 CNS it was more than 100 µM. In the test with HL-60(TB) leukemia, the TGI is more than 100 µM.

As for `ClCCN1CCOC1=Nc1ccc2c(c1)CCCC2`, the TGI in the test on A549 NSCLC came to 57.5 µM; with UACC-257 melanoma, 13.2 µM; with CCRF-CEM leukemia it was 35.7 µM; in the test on CAKI-1 renal it was 53.8 µM; in the test with EKVX NSCLC, 42.3 µM; in the test on SF-268 CNS, 47.7 µM. Moreover, the TGI in the test on SN12C renal amounted to 27 µM; in the test with HOP-92 NSCLC, 30.7 µM; in the test on IGROV1 ovarian it was 24.8 µM; in the test on SK-MEL-5 melanoma, 7.38 µM; with NCI/ADR-RES ovarian it was 51.9 µM; with PC-3 prostate, 23 µM. For the same molecule, the TGI with MOLT-4 leukemia worked out at 39.9 µM; with HCT-15 colon, 48.6 µM; in the test on UACC-62 melanoma, 27.9 µM; in the test on MDA-MB-231 breast it was 31.7 µM; with HCC-2998 colon, 30.1 µM; in the test with U251 CNS it was 28.6 µM. This molecule also had a TGI in the test on HL-60(TB) leukemia of 17.1 µM.

Take `CCOC(=O)[C@H](O)[C@@H](O)C(=O)NCc1ccc(C(=O)c2ccccc2)cc1`: the TGI in the test with A549 NSCLC, with UACC-257 melanoma, in the test on CCRF-CEM leukemia, in the test with CAKI-1 renal, in the test on EKVX NSCLC and with SF-268 CNS was more than 100 µM throughout. The TGI in the test on SN12C renal, with HOP-92 NSCLC, with IGROV1 ovarian, with SK-MEL-5 melanoma, in the test with NCI/ADR-RES ovarian and in the test with PC-3 prostate was more than 100 µM each time. Moreover, the TGI with MOLT-4 leukemia, in the test with HCT-15 colon, with UACC-62 melanoma, in the test on MDA-MB-231 breast, in the test on HCC-2998 colon and with U251 CNS was more than 100 µM each time. Moreover, the TGI in the test on HL-60(TB) leukemia was more than 100 µM.

Turning to `CC(=O)Nc1ccc(CNc2cc(=O)n(C)c(=O)[nH]2)cc1`, the TGI with A549 NSCLC, in the test with UACC-257 melanoma, in the test on CCRF-CEM leukemia, with CAKI-1 renal, in the test with EKVX NSCLC and with SF-268 CNS was more than 100 µM in each case. Also, the TGI in the test on SN12C renal, with HOP-92 NSCLC, in the test with IGROV1 ovarian, in the test with SK-MEL-5 melanoma, in the test on NCI/ADR-RES ovarian and with PC-3 prostate was more than 100 µM in each case. The TGI with MOLT-4 leukemia, with HCT-15 colon, in the test with UACC-62 melanoma, in the test on MDA-MB-231 breast, in the test on HCC-2998 colon and in the test with U251 CNS was more than 100 µM in each case. In the test with HL-60(TB) leukemia, this molecule had a TGI of more than 100 µM.

In the case of `O=C1C(Cl)=C(N2C(=O)CCCC2=O)C(=O)c2ccccc21`, the TGI was 54.7 µM with A549 NSCLC; 38.7 µM in the test with UACC-257 melanoma; 23.3 µM in the test with CCRF-CEM leukemia; 27.2 µM with CAKI-1 renal; 33.2 µM in the test with EKVX NSCLC; more than 100 µM with SF-268 CNS. In addition, the TGI amounted to 46.2 µM in the test on SN12C renal; 9.29 µM in the test on HOP-92 NSCLC; 30.1 µM in the test on IGROV1 ovarian; 30.2 µM in the test on SK-MEL-5 melanoma; 95.3 µM with NCI/ADR-RES ovarian; 41.7 µM in the test on PC-3 prostate. Further, the TGI in the test with MOLT-4 leukemia stood at 55.6 µM; in the test with HCT-15 colon, 25.6 µM; in the test with UACC-62 melanoma, 37.4 µM; in the test with MDA-MB-231 breast it was 50.5 µM; with HCC-2998 colon, 31.4 µM; in the test on U251 CNS, 66.1 µM. Besides, the TGI with HL-60(TB) leukemia stood at 4.42 µM.

Consider `CCOC(=O)C(NCc1ccc2c(c1)OCO2)(NC(=O)c1ccccc1)C(F)(F)F` (centres undefined), for which the TGI was more than 100 µM in the test on A549 NSCLC; more than 100 µM in the test with UACC-257 melanoma; 67.8 µM with CCRF-CEM leukemia; more than 100 µM with CAKI-1 renal; more than 100 µM with EKVX NSCLC; more than 100 µM with SF-268 CNS. The TGI in the test on SN12C renal, in the test with HOP-92 NSCLC, in the test on IGROV1 ovarian, in the test with SK-MEL-5 melanoma, in the test with NCI/ADR-RES ovarian and in the test on PC-3 prostate was more than 100 µM throughout. Moreover, the TGI with MOLT-4 leukemia is 50.8 µM; in the test with HCT-15 colon it was more than 100 µM; with UACC-62 melanoma, more than 100 µM; in the test on MDA-MB-231 breast, more than 100 µM; in the test with HCC-2998 colon it was more than 100 µM; in the test with U251 CNS, more than 100 µM. In the test on HL-60(TB) leukemia, this molecule displayed a TGI of 82 µM.
